Test results as given in EP0425968A2, “Novel multiple layer transdermal drug administration system” (G.D. Searle & Co., priority 1989, dated 1991).

What was measured:
in vivo = experiment: in vivo; set-up: species or system rhesus monkeys; conditions: female, rhesus monkey, iv, 0.05 mg, AUC Area Under the Curve after intravenous administration
Method: Serum concentration time profiles after intravenous administration: Four female rhesus monkeys, #388, #391, #423, and #430, were used in a cross over design for IV and pad bioavailability experiments. From each monkey, 7 ml of blood sample was removed on the previous day of the experiment, centrifuged to separate serum, and stored at -20°C till the analysis. This serum sample was used to make blanks and standards. […] The serum was separated from blood via centrifugation and stored at -20 °C till analysis.
Analysis of serum samples. […] The aqueous extracts were analyzed by an HPLC-Fluorescence method.

[1] = Serum concentration time profile and pharmacokinetics after transdermal pad administration; type: in vivo, rhesus monkeys; conditions: rhesus monkey, read-out: AUC Area Under the Curve after transdermal administration
Method: Serum concentration time profiles after transdermal pad administration. After overnight fasting, on the day of the experiment, monkeys were restrained in chairs and the chest areas were clipped to remove hair, avoiding any injury to the skin tissue. Skin surface was wiped with isopropyl alcohol swab and a 4 square centimeter portion of the pad was then applied to the chest area for 24 hours and was removed as described previously. Following the pad application, blood samples were removed at 0.00, 0.5, 1.00, 1.50, 3.00, 5.00, 7.00, 12.00, 24.00, 31.00, and 48.00 hours, centrifuged to separate serum and stored at -20 °C till the analysis.
Analysis of serum samples. Serum albuterol and internal standard bamethan sulphate were extracted into chloroform to remove polar interfering substances and reextracted in to the aqueous phase to eliminate nonpolar materials. The aqueous extracts were analyzed by an HPLC-Fluorescence method.

[2] = use for preterm labor; cited from earlier work
[3] = Figure 1; against prior art agents such as Azone® and isopropyl alcohol (IPA)

Structure (SMILES) | AUC (in vivo) [ng·h/mL] | AUC ([1]; Monkey #423, Transdermal dose 0.77 mg.Kg⁻¹) [ng·h/mL] | AUC ([1]; topical or ocular, Monkey #388, Transdermal dose 0.38 mg.Kg⁻¹) [ng·h/mL] | AUC ([1]; topical or ocular, Monkey #391, Transdermal dose 0.39 mg.Kg⁻¹) [ng·h/mL] | AUC ([1]; topical or ocular, Monkey #430, Transdermal dose 0.72 mg.Kg⁻¹) [ng·h/mL] | plasma levels needed for uterine relaxation [2] [nanograms per milliliter] | effect of adjuvant agent on the flux of albuterol [3]
CC(C)(C)NCC(O)c1ccc(O)c(CO)c1 (stereo not shown) [albuterol] | 70.7 | 1530 | 712 | 777 | 1260 | 8 to 33 | 
CCO [ethanol] |  |  |  |  |  |  | most effective
